Reference: US20220087275A1, “MAGNESIUM ION AS ANTIBACTERIAL AGENT” (THE STATE OF ISRAEL, MINISTRY OF AGRICULTURE & RURAL …, priority 2016, published 2022)
Like-named read-outs stand apart in the source and are kept apart here.

What was measured:
epsA-O operon = experiment: β-Galactosidase transcriptional fusion, matrix gene expression (eps); format: cell-based, Bacillus subtilis; conditions: for expression of the eps operon: similar concentrations of NaCl or CaCl2
Excerpt: (§1) To analyze the effect of magnesium ions on matrix gene expression a transcriptional fusions of the promoters for eps and tapA to the gene encoding β galactosidase were used. Samples of generated pellicles as described above were collected and resuspended in phosphate-buffered saline (PBS) buffer. Typical long bundled chains of cells in the biofilm colony were disrupted using mild sonication as described previously. Optical density of the cell samples was normalized using OD600. One milliliter of cell suspensions was collected and assayed for (3-Galactosidase activity as described previously.
(§2) The effect of Mg^2+ ions on matrix gene expression was examined by using transcriptional fusions of the promoters for epsA-O and tapA to the gene encoding β galactosidase.

[1] = test system: Bacillus subtilis wild strain NCIB3610; experiment: Pellicle (biofilm) formation in LBGM broth; format: cell-based; conditions: for biofilm formation by B. subtilis: NaCl or CaCl2 added to LBGM, results not shown; for pellicle formation by B. subtilis: LBGM medium, 30° C., 24 h
Protocol: Plates were incubated at 30° C. for 24 h.

tapA operon [2] = experiment: β-Galactosidase transcriptional fusion, matrix gene expression (tapA); format: cell-based, Bacillus subtilis; conditions: for expression of the tapA operon: similar concentrations of NaCl or CaCl2
Excerpt: as §1, §2

B. subtilis [3] = conditions: at 50 mM and higher (50 and 80 mM tested)
Excerpt: Further, the effect of magnesium ions on biofilm formation by B. subtilis within orange juice enriched medium, was examined.

[4] = 50 mM or 100 mM MgCl2; B. subtilis culture, 5 hours, 37° C.
Protocol: Cultures were incubated for 5 hours at 37° C. and 50 rpm and pH was measured every hour using pH strips.

B. subtilis NCIB3610 = conditions: LBGM, tested concentrations (5-100 mM MgCl2)
Protocol: Initially, the cells were grown in shaking cultures over night at 23° C./150 rpm in LB to around 2×10^9 CFU per ml. […] The absorbance of the cultures at 600 nm was measured periodically for each culture for 9 hours. Each condition had 3 replicates, and the growth curve experiments were repeated twice.

[5] = test system: Bacillus subtilis wild strain NCIB3610; conditions: high concentrations of Mg ions; solid LBGM, 30° C., 72 h
Protocol: For routine growth, all strains were propagated in Lysogeny broth (LB; 10 g of tryptone, 5 g of yeast extract and 5 g of NaCl per liter) or on solid LB medium supplemented with 1.5% agar. For biofilm generation, bacteria were grown to stationary phase in LB medium at 37° C. in shaking culture to around 1×10^8 CFU per ml. Biofilms were generated at 30° C. in the biofilm promoting medium LBGM (LB+1% (v/v) glycerol+0.1 mM MnSO4). […] For colony type biofilm formation, 3 μl of the cells (around 3×10^5 CFU) was spotted onto LBGM medium solidified with 1.5% agar as described previously. Plates were incubated at 30° C. for 72 h prior to analysis. For pellicle formation, 5 μl of the cells (around 5×10^5 CFU) was mixed within 4 ml of LBGM broth in 12-well plates (Costar). Plates were incubated at 30° C. for 24 h. Images were taken using a Zeiss Stemi 2000-C microscope with an axiocam ERc 5s camera.

B. subtilis [6] = conditions: milk supplemented with additional 3 mM or 5 mM MgCl2
Excerpt: The effect of increase in the concentration of magnesium ions was examined. […] The survival rate of bacteria following pasteurization was examined.

tapA operon [7] = conditions: increase of 1, 3 or 5 mM; particularly 5 mM MgCl2
Protocol: The effect of increase in concentration of Mg′ within milk on the expression of tapA operon, which is one of the major operon for matrix production, was examined. For this purpose, B. subtilis were grown within cow's milk and cow's milk with an increase of 1 mM, 3 mM or 5 mM in concentration of magnesium ions. Further, transcriptional fusions of tapA promoter to the gene encoding cyan fluorescent protein (CFP) were utilized.

[8] = test system: B. subtilis cells (YC161 with Pspank-gfp); conditions: 25 mM MgCl2 and higher; 24 h in LBGM
Protocol: For fluorescent microscopy, the strain YC161 that produced GFP constitutively, was used. The strain was first grown in shaking culture for 5 h 37° C./150 rpm in LB to around 1×10^8 CFU per ml. Next, 5 μl (around 5×10^5 CFU) of suspension from the generated culture was introduced into 4 ml of LBGM medium and incubated at 30° C. for 24 h statically. Afterwards, one milliliter of suspension from each sample was collected, mildly sonicated (10 sec/20% Amp/5) and centrifuged at 5000 rpm for 2 min. Next, the supernatant was removed and the pellet was re-suspended by pipetting. For microscopic observation, 34, from the samples were transferred onto a glass slide and visualized in a transmitted light microscope using Nomarski differential interference contrast (DIC), at ×40 magnification. A confocal laser scanning microscope was used to visualize GFP expression of strain YC161 using an Olympus IX81 confocal laser scanning microscope (Japan) equipped with 488 nm argon-ion and 543 nm helium neon lasers.
Next, the effect of magnesium ions was visualized microscopically by testing bundling phenotype of fluorescently tagged B. subtilis cells (YC161 with Pspank-gfp), that produce GFP constitutively.

[9] = Protocol: In order to examine milk clotting parameters, milk samples obtained from the dairy farm of the Agricultural Research Organization (ARO; Bet Dagan, Israel). […] Milk-clotting parameters such as rennet clotting time (RCT; min) and curd firmness (CF; V) after 90 min (CF-90) which are measured with an Optigraph instrument (Ysebaert, Frepillon, France) as described by Leitner et al. (2011). Results are presented in a graph. The point in which the curve is split into two curves, represents the rennet Clotting Time (RCT), which is the time between the addition of the clotting enzyme and the beginning of the coagulation process. The curd firmness is derived from the distance of the two curves in the graph 30 min after the addition of the clotting enzyme, or 90 minutes after the addition of the clotting enzyme.
B. subtilis [10] = test system: B. subtilis
Protocol: The effect of magnesium ions on biofilm formation within cow's milk was examined. A skilled artisan will appreciate that magnesium concentration within cow's milk typically ranges between 4-6 mM.

[11] = test system: Bacillus subtilis NCIB 3610
Protocol: Additional experiments were conducted in order to evaluate the effect of magnesium ions on colony type biofilm formation by Bacillus subtilis on a solid surface. First a starter culture was prepared by growing bacteria from the strain Bacillus subtilis NCIB 3610 in an LB (Lysogeny broth) medium at 37° C., 150 rpm for 5 hours. […] Following these steps, 3 μl of the starter culture were spotted onto each of the solid biofilm promoting mediums. The samples were incubated at 30° C. for 72 hours prior to analysis. Images were taken using a Zeiss Stemi 2000-C microscope with an axiocam ERc 5s camera.

[12] = elevated concentrations of Mg2+ ions, pellicles in LBGM

## [Ca+2].[Cl-].[Cl-] [CaCl2]
epsA-O operon
  expression of the eps operon: not downregulated in a similar manner
[1]
  biofilm formation by B. subtilis: none of those compounds could inhibit the biofilm formation in the same manner as MgCl2
tapA operon [2]
  expression of the tapA operon: not downregulated in a similar manner

## [Cl-].[Cl-].[Mg+2] [MgCl2, magnesium chloride]
B. subtilis [3]
  colony type biofilm formation within orange juice enriched medium: inhibits colony type biofilm formation
[4]
  pH of the milk: does not affect the pH of the milk
B. subtilis NCIB3610
  bacterial growth: did not affect bacterial growth
[5]
  colony type biofilm formation: inhibited significantly
B. subtilis [6]
  susceptibility of bacteria to heat pasteurization: increase the susceptibility of bacteria to heat pasteurization
epsA-O operon; [12]
  reduction in eps expression: around 4 fold
[1]
  pellicle formation by B. subtilis: inhibited notably pellicle formation by B. subtilis in a concentration dependent manner
tapA operon [7]
  expression of the tapA operon within milk: reduced drastically
tapA operon [2]; [12]
  decrease in tapA expression: ~14.5 fold
[8]
  bundling ability of B. subtilis cells: significant reduction in bundling ability
[9]; addition of 1 mM MgCl2
  decrease in RCT: about 32%
  increase in curd firmness: about 37%
[9]; addition of 3 mM MgCl2
  decrease in RCT: ~51%
  increase in curd firmness: ~54%
[9]; addition of 5 mM MgCl2
  decrease in RCT: ~62%
  increase in curd firmness: ~69%
[9]; addition of 7 mM MgCl2
  decrease in RCT: ~70%
  increase in curd firmness: ~82%
[9]; addition of 10 mM MgCl2
  decrease in RCT: ~84%
  increase in curd firmness: ~84%
[9]; addition of 15 mM MgCl2
  decrease in RCT: ~73%
  increase in curd firmness: ~90%
[9]; addition of 20 mM MgCl2
  decrease in RCT: ~74%
  increase in curd firmness: ~72%
B. subtilis [10]; 5 mM increase of MgCl2 concentration
  biofilm bundles within milk: biofilm bundles are almost totally diminished
B. subtilis [10]; cow's milk, magnesium increase of 1, 3 or 5 mM
  biofilm formation by B. subtilis within milk: inhibit biofilm formation by B. subtilis within milk
B. subtilis [10]; increased Mg ions concentration within milk
  bacterial growth within milk: not significantly affected
B. subtilis [10]; magnesium concentration increased by 1 mM
  biofilm formation by B. subtilis within milk: inhibitory effect of Mg2+ ions is notable
[11]; magnesium ions 20 mM or 50 mM spread onto a solid surface
  biofilm formation by B. subtilis on solid surface: reduced biofilm formation
[11]; solution of 20 mM MgCl2 as printed (second sentence)
  biofilm formation onto pre-treated surface, stronger effect: inhibitory effect is more significant
[11]; surface spread with solution of 20 mM MgCl2, 30° C., 72 h
  biofilm formation by B. subtilis onto pre-treated surface: inhibitory effect on biofilm formation

## O=S(=O)([O-])[O-].[Mg+2] [MgSO4, magnesium sulfate]
[1]
  pellicle formation by B. subtilis: inhibited the pellicle formation

## [Cl-].[Na+] [NaCl]
epsA-O operon
  expression of the eps operon: not downregulated in a similar manner
[1]
  biofilm formation by B. subtilis: none of those compounds could inhibit the biofilm formation in the same manner as MgCl2
tapA operon [2]
  expression of the tapA operon: not downregulated in a similar manner
